Measurements as given in patent publication US20200231638A1, “STABILIZED ANTI-MICROBIAL PEPTIDES” (priority 2015, published 2020).
Bridge positions count the residues as written; N and C are the ends. Square brackets hold non-standard residues; d marks the D form. Peptide text beside a SMILES is read from it. R8 = C=CCCCCCC[C@@](C)(N)C(=O)O; S5 = C=CCCC[C@](C)(N)C(=O)O; Nle = CCCC[C@H](N)C(=O)O; Aib = CC(C)(N)C(=O)O

Assays:
E. coli = type: cell-based, Escherichia coli
Method in brief: (§1)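 Read-out is visible growth: the MIC is the lowest peptide concentration showing none after 20-24 hours at 37° C. Bacteria in refined (anion-exchanged) Mueller-Hinton broth were seeded at a final 5×10^5 CFU/ml onto water-based peptide serial dilutions.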

B. cereus = type: cell-based, Bacillus cereus
Method in brief: as §1

S. aureus = type: cell-based, Staphylococcus aureus
Method in brief: as §1

P. aeruginosa = type: cell-based, Pseudomonas aeruginosa
Method in brief: as §1

human red blood cells = type: cell-based; settings: for % Hemolysis at 25 μg/ml: red cells of human, 1 h
Method in brief: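 Washed human RBCs as 1% (v/v) suspension in phosphate-buffered saline incubated 1 h at 37° C with serially diluted peptides. Hemoglobin release in supernatant measured spectrophotometrically (570 nm), % hemolysis relative to untreated and 1% Triton-X100 controls; MHC defined as concentration giving less than 1% release.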

Row | Structure (SMILES) | MIC E. coli (E. coli) [µg/mL] | MIC B. cereus (B. cereus) [µg/mL] | MIC S. aureus (S. aureus) [µg/mL] | MIC P. aeruginosa (P. aeruginosa) [µg/mL] | % Hemolysis at 25 μg/ml (human red blood cells) [%] | hemolytic activity at concentrations 8-fold higher than its MIC (human red blood cells)
1 | CCCC[C@H](NC(=O)[C@]1(C)CCCC=CCCC[C@](C)(NC(=O)[C@H](C)NC(=O)[C@H](CCCCN)NC(=O)CNC(=O)[C@H](Cc2ccccc2)NC(=O)[C@H](CCCCN)NC(=O)[C@H](CCCCN)NC(=O)[C@H](C)NC(=O)[C@H](CO)NC(=O)[C@H](Cc2c[nH]cn2)NC(=O)[C@H](CC(C)C)NC(=O)[C@H](Cc2ccccc2)NC(=O)[C@H](CCCCN)NC(=O)CNC(=O)[C@@H](NC(=O)CN)[C@@H](C)CC)C(=O)N[C@@H](C(C)C)C(=O)N[C@@H](CCCCN)C(=O)N[C@@H](CCC(=O)O)C(=O)N1)C(=O)N[C@@H](CC(N)=O)C(=O)N[C@@H](CO)C(N)=O [Mag(i + 4)15(G18K), GIGKFLHSAKKFGKAXVKEXBNS] (H-GIGKFLHSAKKFGKA[S5]VKE[S5][Nle]NS-NH2; staple 16-20) | 1.6 | 3.1 | 12.5 | 3.1 | 10.1 | 
2 | CCCC[C@H](NC(=O)[C@]1(C)CCCC=CCCC[C@](C)(NC(=O)[C@H](C)NC(=O)[C@H](CCCCN)NC(=O)C(C)(C)NC(=O)[C@H](Cc2ccccc2)NC(=O)[C@H](CCCCN)NC(=O)[C@H](CCCCN)NC(=O)[C@H](C)NC(=O)[C@H](CO)NC(=O)[C@H](Cc2c[nH]cn2)NC(=O)[C@H](CC(C)C)NC(=O)[C@H](Cc2ccccc2)NC(=O)[C@H](CCCCN)NC(=O)CNC(=O)[C@@H](NC(=O)CN)[C@@H](C)CC)C(=O)N[C@@H](C(C)C)C(=O)NCC(=O)N[C@@H](CCC(=O)O)C(=O)N1)C(=O)N[C@@H](CC(N)=O)C(=O)N[C@@H](CO)C(N)=O [Mag(i + 4)15(G13!), GIGKFLHSAKKF!KAXVGEXBNS] (H-GIGKFLHSAKKF[Aib]KA[S5]VGE[S5][Nle]NS-NH2; staple 16-20) | 1.6 | 3.1 | 3.1 | 3.1 | 71.5 | 
3 | CCCC[C@H](NC(=O)[C@]1(C)CCCC=CCCC[C@](C)(NC(=O)[C@H](C)NC(=O)[C@H](CCCCN)NC(=O)CNC(=O)[C@H](Cc2ccccc2)NC(=O)[C@H](CCCCN)NC(=O)[C@H](CCCCN)NC(=O)[C@H](CCC(=O)O)NC(=O)[C@H](CO)NC(=O)[C@H](Cc2c[nH]cn2)NC(=O)[C@H](CC(C)C)NC(=O)[C@H](Cc2ccccc2)NC(=O)[C@H](CCCCN)NC(=O)CNC(=O)[C@@H](NC(=O)CN)[C@@H](C)CC)C(=O)N[C@@H](C(C)C)C(=O)NCC(=O)N[C@@H](CCC(=O)O)C(=O)N1)C(=O)N[C@@H](CC(N)=O)C(=O)N[C@@H](CO)C(N)=O [Mag(i + 4)15(A9E), GIGKFLHSEKKFGKAXVGEXBNS] (H-GIGKFLHSEKKFGKA[S5]VGE[S5][Nle]NS-NH2; staple 16-20) | 50 | >50 | >50 | >50 | 0.6 | 
4 | CCCC[C@H](NC(=O)[C@]1(C)CCCC=CCCC[C@](C)(NC(=O)[C@H](C)NC(=O)[C@H](CCCCN)NC(=O)CNC(=O)[C@H](Cc2ccccc2)NC(=O)[C@H](CCCCN)NC(=O)[C@H](CCCCN)NC(=O)[C@H](C)NC(=O)[C@H](CO)NC(=O)[C@H](Cc2c[nH]cn2)NC(=O)[C@H](CC(C)C)NC(=O)[C@H](Cc2ccccc2)NC(=O)[C@H](CCCCN)NC(=O)CNC(=O)[C@@H](NC(=O)[C@@H](N)CCC(=O)O)[C@@H](C)CC)C(=O)N[C@@H](C(C)C)C(=O)NCC(=O)N[C@@H](CCC(=O)O)C(=O)N1)C(=O)N[C@@H](CC(N)=O)C(=O)N[C@@H](CO)C(N)=O [Mag(i + 4)15(G1E), EIGKFLHSAKKFGKAXVGEXBNS] (H-EIGKFLHSAKKFGKA[S5]VGE[S5][Nle]NS-NH2; staple 16-20) | 12.5 | >50 | >50 | 50 | 4.1 | 
5 | CCCC[C@H](NC(=O)[C@@H](NC(=O)[C@]1(C)CCCC=CCCCCCC[C@@](C)(NC(=O)[C@H](CCCCN)NC(=O)[C@H](CCCCN)NC(=O)[C@H](C)NC(=O)[C@H](CO)NC(=O)[C@H](Cc2c[nH]cn2)NC(=O)[C@H](CC(C)C)NC(=O)[C@H](Cc2ccccc2)NC(=O)[C@H](CCCCN)NC(=O)CNC(=O)[C@@H](NC(=O)CN)[C@@H](C)CC)C(=O)NCC(=O)N[C@@H](CCCCN)C(=O)N[C@@H](C)C(=O)N[C@@H](Cc2ccccc2)C(=O)N[C@@H](C(C)C)C(=O)NCC(=O)N1)[C@@H](C)CC)C(=O)N[C@@H](CC(N)=O)C(=O)N[C@@H](CO)C(N)=O [Mag(i + 7)11] (H-GIGKFLHSAKK[R8]GKAFVG[S5]I[Nle]NS-NH2; staple 12-19 (inferred); N-terminus and C-terminus assumed) | 1.6 | 3.1 | 3.1 | 1.6 | 84.8 | 
6 | CCCC[C@H](NC(=O)[C@@H](NC(=O)[C@H](CCC(=O)O)NC(=O)CNC(=O)[C@@H](NC(=O)[C@H](Cc1ccccc1)NC(=O)[C@]1(C)CCCC=CCCCCCC[C@@](C)(NC(=O)[C@H](Cc2c[nH]cn2)NC(=O)[C@H](CC(C)C)NC(=O)[C@H](Cc2ccccc2)NC(=O)[C@H](CCCCN)NC(=O)CNC(=O)[C@@H](NC(=O)CN)[C@@H](C)CC)C(=O)N[C@@H](C)C(=O)N[C@@H](CCCCN)C(=O)N[C@@H](CCCCN)C(=O)N[C@@H](Cc2ccccc2)C(=O)NCC(=O)N[C@@H](CCCCN)C(=O)N1)C(C)C)[C@@H](C)CC)C(=O)N[C@@H](CC(N)=O)C(=O)N[C@@H](CO)C(N)=O [Mag(i + 7)7] (H-GIGKFLH[R8]AKKFGK[S5]FVGEI[Nle]NS-NH2; staple 8-15 (inferred); N-terminus and C-terminus assumed) | 3.1 | 3.1 | 3.1 | 6.2 | 95.5 | 

Now from value to compound, other results behind:

Row | MIC E. coli (E. coli) [µg/mL] | MIC B. cereus (B. cereus) [µg/mL] | MIC S. aureus (S. aureus) [µg/mL] | MIC P. aeruginosa (P. aeruginosa) [µg/mL] | Structure (SMILES) | % Hemolysis at 25 μg/ml (human red blood cells) [%] | hemolytic activity at concentrations 8-fold higher than its MIC (human red blood cells)
7 | 1.6 | 1.6 | 3.1 | 6.2 | CCCC[C@@H]1NC(=O)[C@H]([C@@H](C)CC)NC(=O)[C@H](CCC(=O)O)NC(=O)[C@@](C)(NC(=O)[C@@H](NC(=O)[C@H](Cc2ccccc2)NC(=O)[C@H](C)NC(=O)[C@H](CCCCN)NC(=O)CNC(=O)[C@H](Cc2ccccc2)NC(=O)[C@H](CCCCN)NC(=O)[C@H](CCCCN)NC(=O)[C@H](C)NC(=O)[C@H](CO)NC(=O)[C@H](Cc2c[nH]cn2)NC(=O)[C@H](CC(C)C)NC(=O)[C@H](Cc2ccccc2)NC(=O)[C@H](CCCCN)NC(=O)CNC(=O)[C@@H](NC(=O)CN)[C@@H](C)CC)C(C)C)CCCC=CCCC[C@@](C)(C(=O)N[C@@H](CO)C(N)=O)NC1=O [Mag(i + 4)17] (H-GIGKFLHSAKKFGKAFV[S5]EI[Nle][S5]S-NH2; staple 18-22) | 56.0 | 
8 | 1.6 | 1.6 | 1.6 | 6.2 | CCCC[C@@H]1NC(=O)[C@H]([C@@H](C)CC)NC(=O)[C@H](CCC(=O)O)NC(=O)CNC(=O)[C@H](C(C)C)NC(=O)[C@H](Cc2ccccc2)NC(=O)[C@](C)(NC(=O)[C@H](CCCCN)NC(=O)CNC(=O)[C@H](Cc2ccccc2)NC(=O)[C@H](CCCCN)NC(=O)[C@H](CCCCN)NC(=O)[C@H](C)NC(=O)[C@H](CO)NC(=O)[C@H](Cc2c[nH]cn2)NC(=O)[C@H](CC(C)C)NC(=O)[C@H](Cc2ccccc2)NC(=O)[C@H](CCCCN)NC(=O)CNC(=O)[C@@H](NC(=O)CN)[C@@H](C)CC)CCCCCCC=CCCC[C@@](C)(C(=O)N[C@@H](CO)C(N)=O)NC1=O [Mag(i + 7)14] (H-GIGKFLHSAKKFGK[R8]FVGEI[Nle][S5]S-NH2; staple 15-22 (inferred); N-terminus and C-terminus assumed) | 68.1 | 
9 | 3.1 | 6.2 | 25 | 3.1 | CCCC[C@H](NC(=O)[C@]1(C)CCCC=CCCC[C@](C)(NC(=O)[C@H](CCCCN)NC(=O)[C@H](CCCCN)NC(=O)CNC(=O)[C@H](Cc2ccccc2)NC(=O)[C@H](CCCCN)NC(=O)[C@H](CCCCN)NC(=O)[C@H](C)NC(=O)[C@H](CO)NC(=O)[C@H](Cc2c[nH]cn2)NC(=O)[C@H](CC(C)C)NC(=O)[C@H](Cc2ccccc2)NC(=O)[C@H](CCCCN)NC(=O)CNC(=O)[C@@H](NC(=O)CN)[C@@H](C)CC)C(=O)N[C@@H](C(C)C)C(=O)NCC(=O)N[C@@H](CCC(=O)O)C(=O)N1)C(=O)N[C@@H](CC(N)=O)C(=O)N[C@@H](CO)C(N)=O [Mag(i + 4)15(A15K), GIGKFLHSAKKFGKKXVGEXBNS] (H-GIGKFLHSAKKFGKK[S5]VGE[S5][Nle]NS-NH2; staple 16-20) | 4.1 | 
10 | 1.6 | 25 | 50 | 3.1 | CCCC[C@H](NC(=O)[C@]1(C)CCCC=CCCC[C@](C)(NC(=O)[C@H](C)NC(=O)[C@H](CCCCN)NC(=O)CNC(=O)[C@H](Cc2ccccc2)NC(=O)[C@H](CCCCN)NC(=O)[C@H](CCCCN)NC(=O)[C@H](CCCCN)NC(=O)[C@H](CO)NC(=O)[C@H](Cc2c[nH]cn2)NC(=O)[C@]2(C)CCCC=CCCC[C@](C)(NC(=O)CN)C(=O)NCC(=O)N[C@@H](CCCCN)C(=O)N[C@@H](Cc3ccccc3)C(=O)N2)C(=O)N[C@@H](C(C)C)C(=O)NCC(=O)N[C@@H](CCC(=O)O)C(=O)N1)C(=O)N[C@@H](CC(N)=O)C(=O)N[C@@H](CO)C(N)=O [Mag(i + 4)1, 15(A9K), GXGKFXHSKKKFGKAXVGEXBNS] (H-G[S5]GKF[S5]HSKKKFGKA[S5]VGE[S5][Nle]NS-NH2; staple 2-6, 16-20) | 2.4 | little hemolytic activity
